Laboratory results taken from patent US12447135B2 (University of South Florida, priority 2021, dated 2025).
Entries after “also recorded” stand apart in the source; their conditions may differ. Structures can show the parent of a compound that is named as a salt.

Legend:
Type in all cases: cell-based, human
FFAR2 signaling [1] = assay: Western blot of phospho-ERK1/2 in SK-N-SH cells (FFAR2 signal activation); conditions: 10 μM, 30 min
Method: To determine the FFAR2 signal activating property of selected compounds, SK-N-SH cells were treated with 10 μM of shortlisted compounds for 30 min at 37° C. and harvested for total protein extraction. […] After sonication, cell extracts were centrifuged at 8,000×g for 10 min at 4° C., and the supernatant was separated in a fresh tube. The total protein concentration of the supernatant was measured using a BCA protein assay kit. An equal amount of total protein (45 μg) from each sample was dissolved in loading buffer and loaded in 4% stacking gel and 10% separating SDS-PAGE gel and resolved at 100 V. Proteins were transferred on a 0.22 μm PVDF membrane and blots were developed with anti-ERK1/2, anti-phosphoERK1/2, ubiquitin (P4D1), and Aβ (6E10) primary antibodies followed by their secondary antibodies and bands were visualized using the Pierce™ Fast Western Blot Kit, ECL Substrate acquired using Syngene Pxi. Band densities were also quantified using NIH ImageJ software. β-actin was used as an internal control.

FFAR2 signaling [2] = assay: cAMP-Glo assay, forskolin-induced cAMP in SK-N-SH cells; conditions: 10 μM compound, 10 μM forskolin
Method: FFAR2 is a Gi/o signaling receptor, which reduces cytosolic cAMP (Falomir-Lockhart et al., 2019). To determine the FFAR2 signaling activating potential of selected compounds, the cAMP-Glo™ Assay was used to measure intracellular cAMP. SK-N-SH cells (1×10^3 cells per well) were plated in a white 96-well plate for 24 h and then treated with 10 μM compounds and 10 μM forskolin (a positive control) dissolved in induction buffer. The cAMP levels were detected using a Luminescence Microplate Reader.

SK-N-SH cells = assay: Aβ-induced neurotoxicity, MTT viability assay; conditions: 10 μM CATPB, 25 μM Aβ
Method: To determine the impact of FFAR2 inhibition on Aβ-induced neuronal cell toxicity, the MTT viability assay was performed (Ronicke et al., 2008). SK-N-SH cells (1×10^3 cells per well) were plated in a 96-well plate containing DMEM medium supplemented with 10% FBS and 1% antibiotics and grown at 37° C. for 24 h. Then, media was removed, and cells were washed with PBS before being replenished with DMEM media containing 1% FBS and 10 μM FFAR2 inhibitor (CATPB, Tocris) and incubated at 37° C. for 2 h. Then, cells were treated with Aβ 25-32 peptide (25 μM, Sigma) and incubated for 4 h. Afterward, the media was replaced with 100 μl of fresh media, and 10 μl of MTT reagent (5 mg/ml in phosphate buffer [pH 7.2]) was added and mixed in each well before an additional 4 h incubation. Then, DMSO (50 μl) was added in each well and mixed thoroughly to dissolve formazan crystals. The absorbance was measured at 570 nm.

CC1=CCC(C(C)(C)O)CC1 (stereo not drawn) [α-Terpineol] was tested, and the “descending order of phospho-ERK1/2 levels” value (“descending order” below) (FFAR2 signaling [1]) was “Fenchol>Octopamine>Carvamenthenol>Camphene>Pentanone>Synephrine>Leucinamide>Carene>α-Terpineol>Breneol>L-Fenchone>D-Fenchone>Norpseudoephedrine HCl” and the “cAMP upon Forskolin-stimulation, ascending order” value (from here on “cAMP upon Forskolin-stimulation”) (FFAR2 signaling [2]) was “Fenchol<Carvamenthenol<α-Terpineol<Carene<Pentanone<Octopamine<Camphene”.
For CC1(C)C(=O)[C@@]2(C)CCC1C2 [D-Fenchone], the “descending order” value (FFAR2 signaling [1]) was “Fenchol>Octopamine>Carvamenthenol>Camphene>Pentanone>Synephrine>Leucinamide>Carene>α-Terpineol>Breneol>L-Fenchone>D-Fenchone>Norpseudoephedrine HCl”.
With CNCC(O)c1ccc(O)cc1 (centres unmarked) [Synephrine] the “descending order” value (FFAR2 signaling [1]) was “Fenchol>Octopamine>Carvamenthenol>Camphene>Pentanone>Synephrine>Leucinamide>Carene>α-Terpineol>Breneol>L-Fenchone>D-Fenchone>Norpseudoephedrine HCl”.
With C[C@H](N)[C@@H](O)c1ccccc1 [Norpseudoephedrine HCl] the “descending order” value (FFAR2 signaling [1]) was “Fenchol>Octopamine>Carvamenthenol>Camphene>Pentanone>Synephrine>Leucinamide>Carene>α-Terpineol>Breneol>L-Fenchone>D-Fenchone>Norpseudoephedrine HCl”.
With O=C(O)C[C@H](Cc1ccc(C(F)(F)F)cc1)NC(=O)Cc1cccc(Cl)c1 [CATPB, reference compound] the “Aβ-induced cell death / cell viability under FFAR2 inhibition” value (SK-N-SH cells) was “further reduced cell viability; also recorded: further exacerbated Aβ-induced cell death”.
CC1(C)C2CCC1(C)C(O)C2 (centres unmarked) [Breneol] was tested, and the “descending order” value (FFAR2 signaling [1]) was “Fenchol>Octopamine>Carvamenthenol>Camphene>Pentanone>Synephrine>Leucinamide>Carene>α-Terpineol>Breneol>L-Fenchone>D-Fenchone>Norpseudoephedrine HCl”.
With Carene the “descending order” value (FFAR2 signaling [1]) was “Fenchol>Octopamine>Carvamenthenol>Camphene>Pentanone>Synephrine>Leucinamide>Carene>α-Terpineol>Breneol>L-Fenchone>D-Fenchone>Norpseudoephedrine HCl” and the “cAMP upon Forskolin-stimulation” value (FFAR2 signaling [2]) was “Fenchol<Carvamenthenol<α-Terpineol<Carene<Pentanone<Octopamine<Camphene”.
In the case of C=C1C2CCC(C2)C1(C)C (centres unmarked) [Camphene], the “descending order” value (FFAR2 signaling [1]) is reported as “Fenchol>Octopamine>Carvamenthenol>Camphene>Pentanone>Synephrine>Leucinamide>Carene>α-Terpineol>Breneol>L-Fenchone>D-Fenchone>Norpseudoephedrine HCl” and the “cAMP upon Forskolin-stimulation” value (FFAR2 signaling [2]) is reported as “Fenchol<Carvamenthenol<α-Terpineol<Carene<Pentanone<Octopamine<Camphene”.
In the case of CC(C)C[C@H](N)C(N)=O [Leucinamide], the “descending order” value (FFAR2 signaling [1]) is reported as “Fenchol>Octopamine>Carvamenthenol>Camphene>Pentanone>Synephrine>Leucinamide>Carene>α-Terpineol>Breneol>L-Fenchone>D-Fenchone>Norpseudoephedrine HCl”.
Carvamenthenol was tested, and the “descending order” value (FFAR2 signaling [1]) was “Fenchol>Octopamine>Carvamenthenol>Camphene>Pentanone>Synephrine>Leucinamide>Carene>α-Terpineol>Breneol>L-Fenchone>D-Fenchone>Norpseudoephedrine HCl” and the “cAMP upon Forskolin-stimulation” value (FFAR2 signaling [2]) was “Fenchol<Carvamenthenol<α-Terpineol<Carene<Pentanone<Octopamine<Camphene”.
CC1(C)C(=O)[C@@]2(C)CC[C@H]1C2 [L-Fenchone] was tested, and the “descending order” value (FFAR2 signaling [1]) was “Fenchol>Octopamine>Carvamenthenol>Camphene>Pentanone>Synephrine>Leucinamide>Carene>α-Terpineol>Breneol>L-Fenchone>D-Fenchone>Norpseudoephedrine HCl”.
With NCC(O)c1ccc(O)cc1 (centres unmarked) [Octopamine] the “descending order” value (FFAR2 signaling [1]) was “Fenchol>Octopamine>Carvamenthenol>Camphene>Pentanone>Synephrine>Leucinamide>Carene>α-Terpineol>Breneol>L-Fenchone>D-Fenchone>Norpseudoephedrine HCl” and the “cAMP upon Forskolin-stimulation” value (FFAR2 signaling [2]) was “Fenchol<Carvamenthenol<α-Terpineol<Carene<Pentanone<Octopamine<Camphene”.
